Results: patent US9505750B2, “5-aminocyclylmethyl-oxazolidin-2-one derivatives” (priority 2007, dated 2016)
In brackets after ≈: the same amount, converted by molar mass.

System: M. catarrhalis A894
Experiment: MIC determination by microdilution in cation-adjusted Mueller-Hinton Broth (NCCLS)
Assay type: cell-based
Conditions: Moraxella catarrhalis, pH 7.2-7.3
Procedure: These assays have been performed following the description given in “Methods for dilution Antimicrobial Susceptibility Tests for Bacteria that Grow Aerobically, 4th ed.; Approved standard: NCCLS Document M7-A4; National Committee for Clinical Laboratory Standards: Villanova, Pa., USA, 1997”. Minimal inhibitory concentrations (MICs; mg/l) were determined in cation-adjusted Mueller-Hinton Broth (BBL) by a microdilution method following NCCLS guidelines (National Committee for Clinical Laboratory Standards. Methods for Dilution Antimicrobial Susceptibility). The pH of the test medium was 7.2-7.3. All Example compounds were tested against several Gram-positive and Gram-negative bacteria.

Row | SMILES | MIC [µg/mL]
1 | COc1ccc2ncnc(OCC3CN(C[C@@H]4CN(c5ccc6c(c5)OCCO6)C(=O)O4)C3)c2c1 [Example 30, (R)-3-(2,3-dihydro-benzo[1,4]dioxin-6-yl)-5-[3-(6-methoxy-quinazolin-4-yloxymethyl)-azetidin-1-ylmethyl]-oxazolidin-2-one] | 0.063 (≈ 0.132 µM)
2 | COc1ccc2nccc(NC(=O)C3CCN(C[C@@H]4CN(c5ccc6c(c5)NC(=O)CS6)C(=O)O4)C3)c2n1 (mixture of isomers) [Example 8, (RS)-1-[(R)-2-oxo-3-(3-oxo-3,4-dihydro-2H-benzo[1,4]thiazin-6-yl)-oxazolidin-5-ylmethyl]-pyrrolidine-3-carboxylic acid (6-methoxy-[1,5]naphthyridin-4-yl)-amide] | ≤ 0.031
3 | COc1ccc2nccc([C@@H](O)[C@H](O)C3CCN(C[C@@H]4CN(c5ccc6c(c5)NC(=O)CS6)C(=O)O4)C3)c2n1 (mixture of isomers) [Example 11, 6-((R)-5-{(RS)-3-[(1R,2R)-1,2-dihydroxy-2-(6-methoxy-[1,5]naphthyridin-4-yl)-ethyl]-pyrrolidin-1-ylmethyl}-2-oxo-oxazolidin-3-yl)-4H-benzo[1,4]thiazin-3-one] | 0.125
4 | COc1ccc2ncnc(O[C@H]3C[C@@H](CN=[N+]=[N-])N(C[C@@H]4CN(c5ccc6c(c5)NC(=O)CS6)C(=O)O4)C3)c2c1 [Example 6, 6-{(R)-5-[(2S,4S)-2-azidomethyl-4-(6-methoxy-quinazolin-4-yloxy)-pyrrolidin-1-ylmethyl]-2-oxo-oxazolidin-3-yl}-4H-benzo[1,4]thiazin-3-one] | ≤ 0.031
5 | COc1ccc2ncnc(O[C@@H]3CN(C[C@@H]4CN(c5ccc6c(c5)NC(=O)CS6)C(=O)O4)C[C@H]3N)c2c1 (relative stereo) [Example 18, 6-{(R)-5-[(3R*,4R*)-3-amino-4-(6-methoxy-quinazolin-4-yloxy)-pyrrolidin-1-ylmethyl]-2-oxo-oxazolidin-3-yl}-4H-benzo[1,4]thiazin-3-one] | ≤ 0.031
6 | COc1ccc2ncnc(O[C@@H]3CN(C[C@@H]4CN(c5ccc6c(c5)NC(=O)CS6)C(=O)O4)C[C@H]3NC(C)=O)c2c1 (relative stereo) [Example 32, N-{(3R*,4R*)-4-(6-methoxy-quinazolin-4-yloxy)-1-[(R)-2-oxo-3-(3-oxo-3,4-dihydro-2H-benzo[1,4]thiazin-6-yl)-oxazolidin-5-ylmethyl]-pyrrolidin-3-yl}-acetamide] | 0.25 (≈ 0.443 µM)
7 | COc1ccc2ncnc(O[C@H]3CCN(C[C@@H]4CN(c5ccc6c(c5)NC(=O)CS6)C(=O)O4)C3)c2c1 [Example 3, 6-{(R)-5-[(S)-3-(6-methoxy-quinazolin-4-yloxy)-pyrrolidin-1-ylmethyl]-2-oxo-oxazolidin-3-yl}-4H-benzo[1,4]thiazin-3-one] | ≤ 0.031
8 | COc1cnc2cccc(C=C3CCN(C[C@@H]4CN(c5ccc6c(c5)NC(=O)CS6)C(=O)O4)CC3)c2n1 [Example 12, 6-{(R)-5-[4-(3-methoxy-quinoxalin-5-ylmethylene)-piperidin-1-ylmethyl]-2-oxo-oxazolidin-3-yl}-4H-benzo[1,4]thiazin-3-one] | ≤ 0.031
9 | COc1ccc2ncnc(O[C@H]3C[C@@H](CNC(C)=O)N(C[C@@H]4CN(c5ccc6c(c5)NC(=O)CS6)C(=O)O4)C3)c2c1 [Example 17, N-{(2S,4S)-4-(6-methoxy-quinazolin-4-yloxy)-1-[(R)-2-oxo-3-(3-oxo-3,4-dihydro-2H-benzo[1,4]thiazin-6-yl)-oxazolidin-5-ylmethyl]-pyrrolidin-2-ylmethyl}-acetamide] | 0.25 (≈ 0.432 µM)
10 | COc1ccc2nccc(OC3CN(C[C@@H]4CN(c5ccc6c(c5)OCCO6)C(=O)O4)C3)c2c1 [Example 44, (R)-3-(2,3-dihydro-benzo[1,4]dioxin-6-yl)-5-[3-(6-methoxy-quinolin-4-yloxy)-azetidin-1-ylmethyl]-oxazolidin-2-one] | 8 (≈ 17.3 µM)
11 | COc1ccc2ncnc(O[C@H]3C[C@@H](CN)N(C[C@@H]4CN(c5ccc6c(c5)NC(=O)CS6)C(=O)O4)C3)c2c1 [Example 15, 6-{(R)-5-[(2S,4S)-2-aminomethyl-4-(6-methoxy-quinazolin-4-yloxy)-pyrrolidin-1-ylmethyl]-2-oxo-oxazolidin-3-yl}-4H-benzo[1,4]thiazin-3-one] | ≤ 0.031
12 | COc1ccc2ncnc(O[C@@H]3CN(C[C@@H]4CN(c5ccc6c(c5)NC(=O)CS6)C(=O)O4)C[C@H]3O)c2c1 (relative stereo) [Example 22, 6-{(R)-5-[(3R*,4R*)-3-hydroxy-4-(6-methoxy-quinazolin-4-yloxy)-pyrrolidin-1-ylmethyl]-2-oxo-oxazolidin-3-yl}-4H-benzo[1,4]thiazin-3-one] | ≤ 0.031
13 | COc1ccc2ncnc(OC3CCN(C[C@@H]4CN(c5ccc6c(c5)NC(=O)CO6)C(=O)O4)CC3)c2c1 [Example 31, 6-{(R)-5-[4-(6-methoxy-quinazolin-4-yloxy)-piperidin-1-ylmethyl]-2-oxo-oxazolidin-3-yl}-4H-benzo[1,4]oxazin-3-one] | ≤ 0.031
14 | COc1ccc2ncnc(OC3CCN(C[C@@H]4CN(c5cc6c(nn5)OCCO6)C(=O)O4)C3)c2c1 (mixture of isomers) [Example 33, (R)-3-(6,7-dihydro-[1,4]dioxino[2,3-c]pyridazin-3-yl)-5-[(RS)-3-(6-methoxy-quinazolin-4-yloxy)-pyrrolidin-1-ylmethyl]-oxazolidin-2-one] | 0.25
15 | COc1ccc2ncnc(O[C@@H]3CCN(C[C@@H]4CN(c5ccc6c(c5)NC(=O)CS6)C(=O)O4)C3)c2c1 [Example 2, 6-{(R)-5-[(R)-3-(6-methoxy-quinazolin-4-yloxy)-pyrrolidin-1-ylmethyl]-2-oxo-oxazolidin-3-yl}-4H-benzo[1,4]thiazin-3-one] | ≤ 0.031
16 | COc1ccc2ncnc(O[C@H]3C[C@@H](Cn4ccnn4)N(C[C@@H]4CN(c5ccc6c(c5)NC(=O)CS6)C(=O)O4)C3)c2c1 [Example 19, 6-{(R)-5-[(2S,4S)-4-(6-methoxy-quinazolin-4-yloxy)-2-[1,2,3]triazol-1-ylmethyl-pyrrolidin-1-ylmethyl]-2-oxo-oxazolidin-3-yl}-4H-benzo[1,4]thiazin-3-one] | 0.063 (≈ 0.107 µM)
17 | N#Cc1ccc2nccc(NC3CN(C[C@@H]4CN(c5ccc6c(c5)NC(=O)CS6)C(=O)O4)C3)c2c1 [Example 38, 4-{1-[(R)-2-oxo-3-(3-oxo-3,4-dihydro-2H-benzo[1,4]thiazin-6-yl)-oxazolidin-5-ylmethyl]-azetidin-3-ylamino}-quinoline-6-carbonitrile] | 0.125 (≈ 0.257 µM)

Continued, values first:

Row | MIC [µg/mL] | SMILES
18 | ≤ 0.031 | COc1ccc2nccc(NC3CN(C[C@@H]4CN(c5ccc6c(c5)OCCO6)C(=O)O4)C3)c2n1 [Example 42, (R)-3-(2,3-dihydro-benzo[1,4]dioxin-6-yl)-5-[3-(6-methoxy-[1,5]naphthyridin-4-ylamino)-azetidin-1-ylmethyl]-oxazolidin-2-one]
19 | ≤ 0.031 | COc1ccc2ncc(F)c(CNC3CN(C[C@@H]4CN(c5ccc6c(c5)NC(=O)CO6)C(=O)O4)C3)c2n1 [Example 26, 6-((R)-5-{3-[(3-fluoro-6-methoxy-[1,5]naphthyridin-4-ylmethyl)-amino]-azetidin-1-ylmethyl}-2-oxo-oxazolidin-3-yl)-4H-benzo[1,4]oxazin-3-one]
20 | ≤ 0.031 | COc1ccc2nccc(NC(=O)C3CN(C[C@@H]4CN(c5ccc6c(c5)NC(=O)CS6)C(=O)O4)C3)c2n1 [Example 7, 1-[(R)-2-oxo-3-(3-oxo-3,4-dihydro-2H-benzo[1,4]thiazin-6-yl)-oxazolidin-5-ylmethyl]-azetidine-3-carboxylic acid (6-methoxy-[1,5]naphthyridin-4-yl)-amide]
21 | ≤ 0.031 | COc1ccc2nccc(OC3CN(C[C@@H]4CN(c5ccc6c(c5)NC(=O)CS6)C(=O)O4)C3)c2n1 [Example 1, 6-{(R)-5-[3-(6-methoxy-[1,5]naphthyridin-4-yloxy)-azetidin-1-ylmethyl]-2-oxo-oxazolidin-3-yl}-4H-benzo[1,4]thiazin-3-one]
22 | 0.25 (≈ 0.539 µM) | O=C1COc2ccc(N3C[C@@H](CN4CC(Nc5ccnc6ccc(F)cc56)C4)OC3=O)cc2N1 [Example 43, 6-{(R)-5-[3-(6-fluoro-quinolin-4-ylamino)-azetidin-1-ylmethyl]-2-oxo-oxazolidin-3-yl}-4H-benzo[1,4]oxazin-3-one]
23 | ≤ 0.031 | COc1ccc2nccc(NC3CN(C[C@@H]4CN(c5ccc6c(c5)NC(=O)CO6)C(=O)O4)C3)c2n1 [Example 24, 6-{(R)-5-[3-(6-methoxy-[1,5]naphthyridin-4-ylamino)-azetidin-1-ylmethyl]-2-oxo-oxazolidin-3-yl}-4H-benzo[1,4]oxazin-3-one]
24 | 0.063 (≈ 0.128 µM) | COc1cnc2cccc(CNC3CN(C[C@@H]4CN(c5ccc6c(c5)NC(=O)CO6)C(=O)O4)C3)c2n1 [Example 34, 6-((R)-5-{3-[(3-methoxy-quinoxalin-5-ylmethyl)-amino]-azetidin-1-ylmethyl}-2-oxo-oxazolidin-3-yl)-4H-benzo[1,4]oxazin-3-one]
25 | ≤ 0.031 | COc1ccc2ncc(F)c(NC3CN(C[C@@H]4CN(c5ccc6c(c5)NC(=O)CO6)C(=O)O4)C3)c2n1 [Example 23, 6-{(R)-5-[3-(3-fluoro-6-methoxy-[1,5]naphthyridin-4-ylamino)-azetidin-1-ylmethyl]-2-oxo-oxazolidin-3-yl}-4H-benzo[1,4]oxazin-3-one]
26 | ≤ 0.031 | COc1ccc2nccc(NCC3CN(C[C@@H]4CN(c5ccc6c(c5)NC(=O)CS6)C(=O)O4)C3)c2n1 [Example 14, 6-((R)-5-{3-[(6-methoxy-[1,5]naphthyridin-4-ylamino)-methyl]-azetidin-1-ylmethyl}-2-oxo-oxazolidin-3-yl)-4H-benzo[1,4]thiazin-3-one]
27 | ≤ 0.031 | COc1ccc2nccc(NC3CN(C[C@@H]4CN(c5ccc6c(c5)NC(=O)CO6)C(=O)O4)C3)c2c1 [Example 25, 6-{(R)-5-[3-(6-methoxy-quinolin-4-ylamino)-azetidin-1-ylmethyl]-2-oxo-oxazolidin-3-yl}-4H-benzo[1,4]oxazin-3-one]
